Assays:
Format in all cases: cell-based
[1] = system: Escherichia coli, Bacillus subtilis and Mycobacterium smegmatis; test: Bacteria grown with glycyrrhizin alone; pretreatment assay
Procedure: For this, the cells are treated with the bioenhancer/compound for 4 to 8 hours and then washed free of it by centrifugation and washing in sterile water. […] The medium is removed from the wells. • ii. The wells are rinsed with 1 ml PBS (Phosphate buffer saline). • iii. To each well 500 μl of freshly prepared trypsin solution (0.1% in PBS) is added. • iv. Trypsin solution is removed after 30 seconds and the plate is gently tapped till the cells are released from the plate surface. • v. Fresh 1 ml of MEM growth medium is added and agitated with a pipette to obtain a cell suspension. • vi. 10 μl of cell suspension is taken on the haemocytometer and a cover glass is placed over the counting chamber. • vii. […] The cell count (titre per ml) in the original sample is then calculated as average count×10^3. Composition of Minimum Essential Medium (MEM): 100 ml In the next step of elucidation of the enhancer action the applicants experimented with the killing activities of different antibiotics against the bacteria singly and in combination with the test compound glycyrrhizin following the method described above. These experiments are to be considered with assay for bioenhancement of the compounds glycyrrhizin/glycyrrhizic acid and licorice, as described earlier. […]

[2] = system: MCF-7 (Breast cancer cell line); test: Assay for bio-enhancement of anti-cancer agents: viable cell count after 36 hours; settings: glycyrrhizin alone, without taxol; untreated control […] 10^−6
Procedure: (§1) For this, the cells are treated with the bioenhancer/compound for 4 to 8 hours and then washed free of it by centrifugation and washing in sterile water. […] 2. Assay for Bio-Enhancement of Anti-Cancer Agents • a) MCF-7 (Breast cancer cell line is inoculated at a density of about 0.1×10^6 cells in MEM medium in the wells of 24 well plate. • b) The used up medium in these cultures is replaced with fresh medium after 18 hours in each well. • c) The test compound (s) is added at desired concentrations in different wells just after the medium replacement. • d) Observations are recorded on the cell count after 36 hours for which the following steps are required. • i. The medium is removed from the wells. • ii. The wells are rinsed with 1 ml PBS (Phosphate buffer saline). • iii. To each well 500 μl of freshly prepared trypsin solution (0.1% in PBS) is added. • iv. Trypsin solution is removed after 30 seconds and the plate is gently tapped till the cells are released from the plate surface. • v. Fresh 1 ml of MEM growth medium is added and agitated with a pipette to obtain a cell suspension. • vi. 10 μl of cell suspension is taken on the haemocytometer and a cover glass is placed over the counting chamber. • vii. The number of viable cells is counted in 5 big squares and the reading is taken from 5 microscopic fields to determine the average. • viii. The cell count (titre per ml) in the original sample is then calculated as average count×10^3. Composition of Minimum Essential Medium (MEM): 100 ml

[3] = system: Candida albicans (ATCC 10231); test: Disc diffusion assay, antifungal agent against Candida albicans; settings: Candida albicans, ATCC10231; glycyrrhizin 1 μg/disc alone, clotrimazole 0
Procedure: (§2) • a) The minimum inhibitory concentration (MIC) of any antibiotic or drug molecule is determined against Escherichia coli (ATCC 10536), Bacillus subtilis (ATCC 6015) and Mycobacterium smegmatis (ATCC 14468) and Candida albicans (ATCC 10231) in broth and disc diffusion assays. • b) The antibiotics or antifungal agents at concentrations 1/10, ⅛, ⅙, ¼, ⅓, ½ and equal to MIC are added alone and in combination with the test compound at varying concentrations in broth assays to evaluate the comparative level of inhibition and similarly at varying concentrations in disc diffusion assay. • c) The combinations showing enhancement in terms of higher activity than antibiotic alone for the inhibition of bacterial growth (large inhibition zone in disc diffusion and higher killing at lower concentration in broth assay) are picked up for future testing. • d) In broth assays the activity is quantified by counting number of viable cells in a given treatment and converted in fold enhancement by the combination treatment compared to antibiotic/drug alone in the killing percentage of cells. • e) The pretreatment assay is followed to determine whether the bioenhancer which may be either an extract obtained from the plant Glycyrrhiza glabra, glycyrrhizin or glycyrrhizic acid, is required along with antibiotic to enhance its activity or even its withdrawal after treatment or prior to antibiotic treatment would benefit. […] Assay for Bio-Enhancement of Anti-Cancer Agents • a) MCF-7 (Breast cancer cell line is inoculated at a density of about 0.1×10^6 cells in MEM medium in the wells of 24 well plate. • b) The used up medium in these cultures is replaced with fresh medium after 18 hours in each well. • c) The test compound (s) is added at desired concentrations in different wells just after the medium replacement. • d) Observations are recorded on the cell count after 36 hours for which the following steps are required. • i. […] The number of viable cells is counted in 5 big squares and the reading is taken from 5 microscopic fields to determine the average. • viii. […]

Escherichia coli = test: Disc diffusion assay against Escherichia coli
Procedure: as §2

Mycobacterium smegmatis = test: Disc diffusion assay against Mycobacterium smegmatis
Procedure: as §2

[4] = system: Escherichia coli (ATCC 10536); test: Broth assay for bio-enhancement of antibiotics: viable cell count, Escherichia coli
[5] = system: Mycobacterium smegmatis (ATCC 14468); test: Broth assay for bio-enhancement of antibiotics: viable cell count, Mycobacterium smegmatis; settings: Table 3
Procedure: as §1
In the next step of elucidation of the enhancer action the applicants experimented with the killing activities of different antibiotics against the bacteria singly and in combination with the test compound glycyrrhizin following the method described above. These experiments are to be considered with assay for bioenhancement of the compounds glycyrrhizin/glycyrrhizic acid and licorice, as described earlier. […] In all the experiments the glycyrrhizin concentration was kept at 1 μg/ml, unless it is specifically mentioned.

Structure (SMILES): CC1(C)[C@@H](O[C@H]2O[C@H](C(=O)O)[C@@H](O)[C@H](O)[C@H]2O[C@@H]2O[C@H](C(=O)O)[C@@H](O)[C@H](O)[C@H]2O)CC[C@]2(C)[C@H]3C(=O)C=C4[C@@H]5C[C@@](C)(C(=O)O)CC[C@]5(C)CC[C@@]4(C)[C@]3(C)CC[C@@H]12 [Glycyrrhizin]
- Enhancement of antibiotic potency after pretreatment of bacterial cells ([1]; cells pretreated with glycyrrhizin for 4–8 hours, washed free, then treated with antibiotics): the same results were observed
- Killing of bacteria grown in presence of the compound as such ([1]; glycyrrhizin alone, no antibiotic): no significant killing
- Final titre of viable cells, without taxol, control (glycyrrhizin) [2]: 0.12 × 10^−6 per ml
- zone of inhibition at 1 µg/disc [3]: 0 mm

Structure (SMILES): CO[C@H]1/C=C/O[C@@]2(C)Oc3c(C)c(O)c4c(O)c(c(/C=N/N5CCN(C)CC5)c(O)c4c3C2=O)NC(=O)/C(C)=C\C=C\[C@H](C)[C@H](O)[C@@H](C)[C@@H](O)[C@@H](C)[C@H](OC(C)=O)[C@@H]1C [Rifampicin]
- zone of inhibition at 500 µg/disc (Escherichia coli; Escherichia coli, read-out: Net zone of inhibition): 2 mm
- Net zone of inhibition (Escherichia coli; rifampicin 500 μg/disc + glycyrrhizic acid 4 μg/disc): 3 mm
- zone of inhibition at 0.4 µg/disc (Mycobacterium smegmatis; Mycolicibacterium smegmatis, read-out: Net zone of inhibition): 3 mm
- Net zone of inhibition (Mycobacterium smegmatis; rifampicin 0.4 μg/disc + glycyrrhizic acid 4 μg/disc): 4 mm
- Survival fraction of viable cells upon treatment with antibiotic alone (a) ([4]; Table 1, antibiotic 10 μg/ml): 0.42
- Survival fraction of viable cells upon treatment with antibiotic- glycyrrhizin combination (b) ([4]; Table 1, antibiotic 10 μg/ml + glycyrrhizin 1 μg/ml): 0.11
- *Folds enhancement in antibiotic activity (a/b) ([4]; Table 1, antibiotic 10 μg/ml, glycyrrhizin 1 μg/ml): 3.8 folds
- Survival fraction of viable cells upon treatment with antibiotic alone (a) ([4]; Table 1, antibiotic 20 μg/ml): 0.28
- Survival fraction of viable cells upon treatment with antibiotic- glycyrrhizin combination (b) ([4]; Table 1, antibiotic 20 μg/ml + glycyrrhizin 1 μg/ml): 0.02
- *Folds enhancement in antibiotic activity (a/b) ([4]; Table 1, antibiotic 20 μg/ml, glycyrrhizin 1 μg/ml): 14.0 folds
- Survival fraction of viable cells upon treatment with antibiotic glycyrrhizic acid combination (b) ([4]; Table 7, antibiotic 20 μg/ml + glycyrrhizic acid): 0.281
- Survival fraction of viable cells upon treatment with antibiotic glycyrrhizic acid combination (b) ([4]; Table 7, antibiotic 20 μg/ml + glycyrrhizic acid, listed as rifampicin): about 0.281
- *Folds enhancement in antibiotic activity (a/b) ([4]; Table 7, antibiotic 20 μg/ml, glycyrrhizic acid): 2.03 folds
- Survival fraction of viable cells upon treatment with antibiotic alone (a) ([4]; Table 10, antibiotic 10 μg/ml): 0.420
- Survival fraction of viable cells upon treatment with antibiotic glycyrrhizic acid combination (b) ([4]; Table 10, antibiotic 10 μg/ml + licorice 25 μg/ml): 0.135
- *Folds enhancement in antibiotic activity (a/b) ([4]; Table 10, antibiotic 10 μg/ml, licorice 25 μg/ml): 3.10 folds
- Survival fraction of viable cells upon treatment with antibiotic alone (a) ([5]; antibiotic 0.5 μg/ml): 0.56 × 10^−4
- Survival fraction of viable cells upon treatment with antibiotic- glycyrrhizin combination (b) ([5]; antibiotic 0.5 μg/ml + glycyrrhizin 1 μg/ml): 0.086 × 10^−4
- *Folds enhancement in antibiotic activity (a/b) ([5]; antibiotic 0.5 μg/ml, glycyrrhizin 1 μg/ml): 6.5 folds

— patent US6979471B1, “Composition comprising pharmaceutical/nutraceutical agent and a bio-enhancer obtained from Glycyrrhiza glabra” (Council of Scientific and Industrial Research, priority 2000, dated 2005)
